ChEMBL document CHEMBL4007388, “Synthesis and antiproliferative activity of monocationic arylthiophene derivatives” (Eur J Med Chem, 2017)

Columns and labels:
[1] = Growth inhibition of human NCI60 cells at 10 uM after 48 hrs by SRB assay relative to control; values are per cent of control; conditions: NCI60, 48 h
[2] = Antioxidant activity assessed as superoxide dismutase-like activity by measuring inhibition of superoxide radical anion production at 2 uM by NBT reduction assay relative to control; format: functional
Escherichia coli = assay: Induction of Escherichia coli genomic DNA cleavage after 1 hr by agarose gel electrophoresis method

Compound | growth percent at 10 µM [1] | inhibition [2] | Activity (Escherichia coli)
N=C(N)c1ccc(-c2ccc(-c3cccs3)s2)cc1F | -72.5% |  | 
CN(C)c1ccc(-c2ccc(-c3ccc(C(=N)N)cc3)s2)cc1 |  | 58% | Dose-dependent effect
COc1ccc(-c2ccc(-c3ccc(C#N)c(F)c3)s2)cc1 |  | 35% | 
N#Cc1ccc(-c2ccc(-c3ccccc3)s2)cc1F |  | 37.9% | 
N#Cc1ccc(-c2ccc(-c3ccc(Cl)cc3)s2)cc1F |  | 35.3% | 
